Laboratory results from patent US6969732B2, “Propylisopropyl acetic acid and propylisopropyl acetamide stereoisomers, a method for their synthesis and pharmaceutical compositions containing them” (Yissum Research Development Company of the Hebrew …, priority 1999, dated 2005).
Where two headings read alike, the source gives them in different places. Marks after values point to notes of the source that are not given here.

What was measured:
[1] = Pharmacokinetic studies in mongrel dogs, intravenous injection; assay type: in vivo; details: for clearance / MRT / half-life / Vd: mongrel, dog, plasma; for clearance: read-out: CL (clearance) (converted); for MRT: read-out: MRT (Mean Residence Time); for half-life: read-out: t½ (converted); for Vd: iv
Protocol: Pharmacokinetic experiments were carried out on six mongrel dogs weighing 18-25 kg. Dogs were housed in an animal farm and were brought to the lab repeatedly every two-three weeks for crossover experiments after an overnight fast. Each dog was inserted with a urine (Levin's tube, Pennine Healthcare, Derby, UK) and two venous (20G/32 mm Venflon 2, Ohmeda, Helsingborg, Sweden) catheters located on different legs. Dogs were fed with commercial dog food four hours after drug injection, and had free access to water during the whole experiment.
Each dog was intravenously injected with […] (10 mg/kg) of each enantiomer separately or […] of the racemate, dissolved in 2 ml of 96% ethyl alcohol. Venous blood samples (6 ml) were withdrawn via an indwelling catheter from the other leg than used for injection, and transferred into heparinized tubes. The blood samples were centrifuged at 3000 g for 10 minutes, plasma was then separated and stored at […] until analyzed. Blood collection commenced at 5 minutes, and continued up to 12 hours after injection. Urine samples were collected in 1-2 hour intervals beginning at 1 hour and up to 12 hours after injection. The urine volume was recorded and an aliquot was stored at […] until analyzed.
Assay of plasma samples: to test tubes containing 2 μg of the internal standard (diisopropyl acetamide), 0.5 ml of plasma (thawed at room temperature) and 5 ml of tert-butyl methyl ether (TBME) was added. The test tubes were vigorously vortexed for 30 sec and centrifuged at 3000 g for 10 minutes. The organic phase was separated and dried under reduced pressure using a vortex evaporator. Samples were then reconstituted with 150 μl of chloroform and dried under reduced pressure without vortexing. The sample was again reconstituted with 30 μl of chloroform, of which 2 μl were injected into the GC apparatus.
The column used for the chromatographic analysis of PID enantiomers was a Mosandl-methyl capillary column (10 m, 0.25 mm, 0.25 μm) coated with: Heptakis (2,3-di-O-methyl-6-O-tert-butyldimethylsilyl)-β-cyclodextrin as the stationary phase and nitrogen as carrier gas (takeo carbohydr res). Column head pressure was set at 50 KPa, split ratio 1:30, oven temperature 120° C., injector temperature 250° C. and detector temperature 250° C.

anaesthetized rats = test: Dural plasma protein (BSA) extravasation evoked by unilateral trigeminal ganglion stimulation; assay type: in vivo; details: FIG. 7
From the text: The animal model used in this study is the one developed by Moskowitz et al. (F. M. Cutrer, V. Limmroth and M. A. Moskowitz: Possible mechanisms of valproate in migraine prophylaxis, Cephalalgia 17:93-100 (1997)). Moskowitz et. al. examined the plasma protein extravasation following electrical trigeminal ganglion stimulation or intravenous administration of substance P. It was concluded that in this model valproic acid blocks plasma extravasation in the meninges through GABAA-mediated postjunctional receptors probably within the meninges. […] Thus, agonists and modulators at the GABAA receptor may become useful for the development of selective drugs for migraine and cluster headache (W. S. Lee et. al.: Peripheral GABAA receptor mediated effects of sodium valproate on durnal plasma protein extravasation to substance P and trigeminal stimulation, Toward Migraine 2000, F. C. Rose Ed. Elsevier, Amsterdam, 1996, pp.289-319).
We tested the effects of PID on dural plasma protein (Bovine Serum Albumine—BSA) extravasation evoked by unilateral trigeminal gangelion stimulation in anaesthetized rats.

[2] = enantiomer given in a racemic mixture, 20 mg/kg iv
[3] = given as individual enantiomers, 10 mg/kg iv
[4] = 10 mg/kg, given as individual enantiomers, 10 mg/kg iv, read-out: Vss
[5] = 10 mg/kg, given as individual enantiomers, 10 mg/kg iv, read-out: Vβ (volume of distribution)
[6] = 20 mg/kg, enantiomer given in a racemic mixture, 20 mg/kg iv, read-out: Vss
[7] = ratio (S)-PID to (R)-PID, individual enantiomers, 10 mg/kg iv
[8] = ratio (S)-PID to (R)-PID, racemic mixture, 20 mg/kg iv

SMILES	E (liver extraction ratio) [1, 2] [%]	Vb [1, 2] [L]	fe (fraction excreted unchanged in the urine) [1, 2] [%]	E (liver extraction ratio) [1, 3] [%]	fe (fraction excreted unchanged in the urine) [1, 3] [%]	clearance [1, 2] [mL/min]	MRT [1, 2] [h]	half-life [1, 2] [h]	clearance [1, 3] [mL/min]	MRT [1, 3] [h]	half-life [1, 3] [h]	Vd [1, 4] [L]	Vd [1, 5] [L]	Vd [1, 6] [L]	also measured
CCC[C@@H](C(N)=O)C(C)C [(R)-PID, (R)-propylisopropyl acetamide]	12.5 ± 4.0	10.2 ± 0.9	0.60 ± 0.45	15.0 ± 4.6	0.50 ± 0.4	100	2.83 ± 0.6	1.25 ± 0.3	113	2.57 ± 0.5	1.37 ± 0.2	16 ± 1.2	13.1 ± 2.2	15.7 ± 1.5	clearance compared with (2S)-PID ([1]; iv administration): lower clearance; half-life compared with (2S)-PID ([1]; iv administration): longer half-life
CCC[C@H](C(N)=O)C(C)C [(S)-PID, (S)-propylisopropyl acetamide]	12.1 ± 4.1	10.4 ± 1.4	0.66 ± 0.46	23.7 ± 3.5	0.40 ± 0.4	100	2.87 ± 0.7	1.27 ± 0.3	188	1.83 ± 0.3	1.04 ± 0.1	19.1 ± 2.7	17 ± 2.9	15.7 ± 0.9	E S/R [1, 7]: 1.58*; Vβ S/R [1, 7]: 1.29; fe S/R [1, 7]: 0.78*; E S/R [1, 8]: 1.0; Vb S/R [1, 8]: 1.0; fe S/R [1, 8]: 1.1
CCCC(C(N)=O)C(C)C (stereo not drawn) [PID, propylisopropyl acetamide]	–	–	–	–	–	–	–	–	–	–	–	–	–	–	stereospecificity of kinetics ([1]; enantiomers given individually, FIG. 4): clear stereospecific kinetics; stereospecificity of kinetics ([1]; given in a racemic mixture, FIG. 5): no sterospecifity is observed; effect on dural plasma protein extravasation (anaesthetized rats): has inhibitory effects on the dural plasma protein extravasation
